Measurements reported in patent US5721103A, “Trienoic retinoid compounds and methods” (Ligand Pharmaceuticals Incorporated, priority 1995, dated 1998).
Blank lines part the entries; values can stand above or below the molecule they belong to.

Experiments:
[1] = system: ornithine decarboxylase (ODC); test: Ornithine decarboxylase assay, inhibition of TPA induction of ODC; format: cell-based; conditions: esters of Compounds 9 and 10
RARγ = target: T1, RARγ (Homo sapiens, UniProt P13631); test: Co-transfection assay, RARγ agonist activity; format: cell-based
T1 construct: expressed in transfected cells; host or cells: CV-1 (African green monkey kidney)
T1 sequence (P13631 1-454): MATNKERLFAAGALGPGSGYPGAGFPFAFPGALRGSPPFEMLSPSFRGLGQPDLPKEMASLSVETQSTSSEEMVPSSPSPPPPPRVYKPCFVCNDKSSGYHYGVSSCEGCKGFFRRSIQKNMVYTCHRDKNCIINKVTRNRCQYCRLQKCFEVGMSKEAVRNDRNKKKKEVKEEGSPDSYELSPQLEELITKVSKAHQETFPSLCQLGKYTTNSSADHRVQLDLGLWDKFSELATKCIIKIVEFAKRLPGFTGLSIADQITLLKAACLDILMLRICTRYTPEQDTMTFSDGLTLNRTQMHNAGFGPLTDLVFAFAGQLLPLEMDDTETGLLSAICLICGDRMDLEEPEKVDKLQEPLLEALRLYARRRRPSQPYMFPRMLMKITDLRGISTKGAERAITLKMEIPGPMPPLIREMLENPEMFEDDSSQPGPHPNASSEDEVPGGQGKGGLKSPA

RARs and RXRs = test: Co-transfection assay, RAR and RXR receptors taken together; format: cell-based
Method: Utilizing the "cis-trans" or "co-transfection" assay described by Evans et al., Science, 240:889-95 (May 13, 1988), the disclosure of which is herein incorporated by reference, the retinoid compounds of the present invention were tested and found to have strong, specific activity as either selective RAR agonists, selective RXR agonists, or as pan-agonist activators of both RAR and RXR receptors. This assay is described in further detail in U.S. Pat. Nos. 4,981,784 and 5,071,773, the disclosures of which are incorporated herein by reference.
In the co-transfection assay, a cloned cDNA for an IR (e.g., human RARα, RARβ, RXRγ) under the control of a constitutive promoter (e.g., the SV 40 promoter) is introduced by transfection (a procedure to induce cells to take up foreign genes) into a background cell substantially devoid of endogenous IRs. This introduced gene directs the recipient cells to make the IR protein of interest. A second gene is also introduced (co-transfected) into the same cells in conjunction with the IR gene. This second gene, comprising the cDNA for a reporter protein, such as firefly luciferase (LUC), is controlled by an appropriate hormone responsive promoter containing a hormone response element (HRE). This reporter plasmid functions as a reporter for the transcription-modulating activity of the target IR. Thus, the reporter acts as a surrogate for the products (mRNA then protein) normally expressed by a gene under control of the target receptor and its native hormone.
The co-transfection assay can detect small molecule agonists or antagonists of target IRs. Exposing the transfected cells to an agonist ligand compound increases reporter activity in the transfected cells. This activity can be conveniently measured, e.g., by increasing luciferase production, which reflects compound-dependent, IR-mediated increases in reporter transcription. […] . Increasing concentrations of a suspected antagonist will decrease the reporter signal (e.g., luciferase production). The co-transfection assay is therefore useful to detect both agonists and antagonists of specific IRs. Furthermore, it determines not only whether a compound interacts with a particular IR, but whether this interaction mimics (agonizes) or blocks (antagonizes) the effects of the native regulatory molecules on target gene expression, as well as the specificity and strength of this interaction.
To determine RAR and/or RXR agonist activity of the compounds of the present invention, the CV-1 cells were transiently transfected by calcium phosphate coprecipitation according to the procedure of Berger et al., 41 J. Steroid Biochem. Mol. Biol., 733 (1992) with the following receptor expressing plasmids: pRShRARα: Giguere et at., 330 Nature, 624 (1987); pRShRARβ and pRShRARγ, Ishikawa et al., 4 Mol. Endocrin., 837 (1990); pRShRXRα, Mangelsdorf et at., 345 Nature, 224 (1990); and pRSmRXRβ and pRSmRXRγ, Mangelsdorf et al., 6 Genes & Devel., 329 (1992), the disclosures of which are herein incorporated by reference. Each of these receptor expressing plasmids was co-transfected at a concentration of 5 ng/well, along with a basal reporter plasmid at 100 ng/well, the internal control plasmid pRS-β-Gal at 50 ng/well and filler DNA, pGEM at 45 ng/well.

RAR and RXR receptors = test: Binding to the retinoid receptors taken together; conditions: RARs and RXRs; compounds 9 and 10 versus ATRA and 9-cis
RARα = target: T2, RARα (Homo sapiens, UniProt P10276); test: Co-transfection assay, RARα agonist activity; format: cell-based; conditions: CV-1 cells, 40 hours, read-out: Potency (EC50) RARα
T2 construct: expressed in transfected cells; host or cells: CV-1 (African green monkey kidney)
T2 sequence (P10276 1-462): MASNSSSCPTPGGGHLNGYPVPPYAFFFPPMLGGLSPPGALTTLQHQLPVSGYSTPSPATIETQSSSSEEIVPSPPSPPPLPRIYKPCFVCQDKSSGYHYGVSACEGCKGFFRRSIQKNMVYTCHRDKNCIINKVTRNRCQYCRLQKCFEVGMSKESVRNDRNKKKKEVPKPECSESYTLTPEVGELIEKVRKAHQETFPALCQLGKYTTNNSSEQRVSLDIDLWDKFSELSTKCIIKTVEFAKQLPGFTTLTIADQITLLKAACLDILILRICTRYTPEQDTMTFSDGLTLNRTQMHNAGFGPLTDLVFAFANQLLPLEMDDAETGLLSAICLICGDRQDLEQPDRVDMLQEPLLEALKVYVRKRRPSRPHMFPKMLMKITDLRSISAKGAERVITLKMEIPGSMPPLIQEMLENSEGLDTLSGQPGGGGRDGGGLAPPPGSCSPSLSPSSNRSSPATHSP

RARβ = target: T3, RARβ (Homo sapiens, UniProt P10826); test: Co-transfection assay, RARβ agonist activity; format: cell-based; conditions: CV-1 cells, 40 hours, read-out: Potency (EC50) RARβ
T3 construct: expressed in transfected cells; host or cells: CV-1 (African green monkey kidney)
T3 sequence (P10826 1-448 isoform P10826-2): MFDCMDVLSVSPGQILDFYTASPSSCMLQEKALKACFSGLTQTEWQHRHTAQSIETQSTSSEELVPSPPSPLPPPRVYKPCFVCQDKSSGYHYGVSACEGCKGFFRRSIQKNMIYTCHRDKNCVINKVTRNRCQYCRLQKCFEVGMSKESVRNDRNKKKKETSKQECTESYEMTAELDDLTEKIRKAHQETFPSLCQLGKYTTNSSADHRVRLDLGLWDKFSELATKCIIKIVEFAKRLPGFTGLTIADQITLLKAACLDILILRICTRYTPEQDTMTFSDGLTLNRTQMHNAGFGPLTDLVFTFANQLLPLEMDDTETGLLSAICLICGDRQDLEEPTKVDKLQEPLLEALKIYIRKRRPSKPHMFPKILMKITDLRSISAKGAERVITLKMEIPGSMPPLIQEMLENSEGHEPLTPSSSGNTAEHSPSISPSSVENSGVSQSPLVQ

RXRα = target: T4, RXRα (Homo sapiens, UniProt P19793); test: Co-transfection assay, RXRα agonist activity; format: cell-based; conditions: CV-1 cells, 40 hours, read-out: Potency (EC50) RXRα
T4 construct: expressed in transfected cells; host or cells: CV-1 (African green monkey kidney)
T4 sequence (P19793 1-462): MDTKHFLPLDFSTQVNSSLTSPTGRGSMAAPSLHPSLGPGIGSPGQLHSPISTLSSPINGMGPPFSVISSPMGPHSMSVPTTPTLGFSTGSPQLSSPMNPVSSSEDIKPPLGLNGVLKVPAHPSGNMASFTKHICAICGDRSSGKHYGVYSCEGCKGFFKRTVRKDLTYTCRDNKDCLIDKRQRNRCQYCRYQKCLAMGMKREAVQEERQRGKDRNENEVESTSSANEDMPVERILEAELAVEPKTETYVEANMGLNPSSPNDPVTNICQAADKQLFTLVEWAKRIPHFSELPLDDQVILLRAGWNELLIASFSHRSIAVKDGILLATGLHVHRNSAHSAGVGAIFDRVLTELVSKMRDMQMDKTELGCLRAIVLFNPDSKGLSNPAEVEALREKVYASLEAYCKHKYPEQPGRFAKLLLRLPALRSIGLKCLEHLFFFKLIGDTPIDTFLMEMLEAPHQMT

RXRβ = target: T5, RXRβ (Mus musculus, UniProt P28704); test: Co-transfection assay, RXRβ agonist activity; format: cell-based; conditions: CV-1 cells, 40 hours, read-out: Potency (EC50) RXRβ
T5 construct: expressed in transfected cells; host or cells: CV-1 (African green monkey kidney)
T5 sequence (P28704 1-520): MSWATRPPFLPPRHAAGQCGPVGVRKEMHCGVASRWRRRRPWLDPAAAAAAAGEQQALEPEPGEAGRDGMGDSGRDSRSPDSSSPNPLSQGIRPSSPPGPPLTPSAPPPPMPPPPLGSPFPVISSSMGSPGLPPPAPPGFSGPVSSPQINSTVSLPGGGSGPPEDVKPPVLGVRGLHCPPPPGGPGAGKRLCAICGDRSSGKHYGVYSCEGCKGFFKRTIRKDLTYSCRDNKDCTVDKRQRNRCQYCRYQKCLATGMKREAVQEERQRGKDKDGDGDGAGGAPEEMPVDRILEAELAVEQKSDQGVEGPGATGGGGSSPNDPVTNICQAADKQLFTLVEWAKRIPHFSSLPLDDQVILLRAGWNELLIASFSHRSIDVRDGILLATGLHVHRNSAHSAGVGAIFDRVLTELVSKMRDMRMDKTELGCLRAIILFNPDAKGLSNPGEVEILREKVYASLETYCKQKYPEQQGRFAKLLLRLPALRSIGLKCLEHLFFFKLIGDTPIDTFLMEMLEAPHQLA

RXRγ = target: T6, RXRγ (Mus musculus, UniProt P28705); test: Co-transfection assay, RXRγ agonist activity; format: cell-based; conditions: CV-1 cells, 40 hours, read-out: Potency (EC50) RXRγ
T6 construct: expressed in transfected cells; host or cells: CV-1 (African green monkey kidney)
T6 sequence (P28705 1-463): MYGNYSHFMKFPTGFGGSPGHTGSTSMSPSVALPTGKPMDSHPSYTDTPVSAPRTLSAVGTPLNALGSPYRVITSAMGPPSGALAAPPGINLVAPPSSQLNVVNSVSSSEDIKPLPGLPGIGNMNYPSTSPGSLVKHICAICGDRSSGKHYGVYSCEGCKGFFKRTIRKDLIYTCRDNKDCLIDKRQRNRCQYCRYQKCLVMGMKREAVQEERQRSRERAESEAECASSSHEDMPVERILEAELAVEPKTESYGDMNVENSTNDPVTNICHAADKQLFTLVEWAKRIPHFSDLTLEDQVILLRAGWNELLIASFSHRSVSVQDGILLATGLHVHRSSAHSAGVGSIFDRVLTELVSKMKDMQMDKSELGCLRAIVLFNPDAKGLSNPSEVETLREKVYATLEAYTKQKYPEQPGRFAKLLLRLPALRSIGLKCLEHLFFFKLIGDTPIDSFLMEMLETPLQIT

SMILES: CCOC(=O)/C=C(C)/C=C/C=C(\C)c1cc(C(C)(C)C)cc(C(C)(C)C)c1 [Compound 7, Ethyl (2E, 4E, 6E)-7-(3,5-di-t-butylphenyl)-3-methylocta-2,4,6-trienoate]
retinoid activity of ester analogs (in words) [1]: exhibit retinoid activity

SMILES: CCOC(=O)/C=C(C)/C=C/C=C(/C)c1cc(C(C)(C)C)cc(C(C)(C)C)c1 [Compound 8, Ethyl (2E, 4E, 6Z)-7-(3,5-di-t-butylphenyl)-3-methylocta-2,4,6-trienoate]
retinoid activity of ester analogs (in words) [1]: exhibit retinoid activity

SMILES: CCc1cc(C)c(\C(C)=C/C=C/C(C)=C/C(=O)O)cc1CC [Compound 54]
EC50 (RARα): > 10000 nM | EC50 (RARβ): 130 nM | EC50 (RARγ; CV-1 cells, 40 hours, read-out: Potency (EC50) RARγ): 320 nM | EC50 (RXRα): 58 nM | EC50 (RXRβ): 28 nM | EC50 (RXRγ): 78 nM

Further lines, results first:

activity on RARγ (in words) (RARγ): sub-nanomolar activity on RARγ | RAR activity (in words) (RARs and RXRs; RARs): extremely potent RAR active compounds | binding on the retinoid receptors (in words) (RAR and RXR receptors): equal or superior binding
SMILES: CC(/C=C/C=C(\C)c1cc(C(C)(C)C)cc(C(C)(C)C)c1)=C\C(=O)O [Compound 9, (2E, 4E, 6E)-7-(3,5-Di-t-butylphenyl)-3-methylocta-2,4,6-trienoic acid]

potency profile in comparison to 9-cis retinoic acid (in words) (RARs and RXRs; versus 9-cis, pan-agonist): superior potency profile | binding on the retinoid receptors (in words) (RAR and RXR receptors): equal or superior binding
SMILES: C/C(=C/C=C/C(C)=C/C(=O)O)c1cc(C(C)(C)C)cc(C(C)(C)C)c1 [Compound 10, (2E, 4E, 6Z)-7-(3,5-Di-t-butylphenyl)-3-methylocta-2,4,6-trienoic acid]
